Melting point data for 64 compounds are collected here from a melting point compilation (Tetko et al.; mined from patent text by program, amines drawn as free bases though some values may be those of a salt).

As usually defined, the melting point is the temperature, or range, at which the solid turns liquid. The compound `COC(=O)c1c(C)ccc(C(O)=S)c1C` yielded a melting point of 178 °C.
Turning to `CCCCCc1ccc2c(c1)Cc1cc(CCCCC)ccc1-2`, the melting point lay within 98.9 to 99.6 °C.
In the case of `CC(C)S(=O)(=O)Nc1cc(C(=O)c2ccccc2)ccc1[N+](=O)[O-]`, the melting point lay in the range of 115 to 116 °C.
As to `CS(=O)COC(=O)c1oc(-c2ccccc2)cc(=O)c1Br` (centres undefined), the melting point turned out to be 159 °C.
The result for `CC(C)(C)c1cc(-c2cc(C(C)(C)C)cc(C(C)(C)C)c2O)c(O)c(C(C)(C)C)c1` reads 190 to 195 °C.
The compound `N#CC1(c2ccccc2)CCN(C(=O)N2CCCc3ccccc32)CC1` returned a melting point of 53 to 59 °C.
The result for `CC(C)(C)c1cc(SCO)cc(C(C)(C)C)c1O` reads 79 to 82 °C.
The result for `N#Cc1ccc(-c2ccc(-c3nc(N)nc(N)n3)cc2)cc1` reads more than 260 °C.
The compound `COc1cccc(CC(=O)O)c1OCCCc1cn(-c2ccc(Br)cn2)nc1C(C)C` had a melting point of 152 to 153 °C.
`CNc1nc(OC)c(C(=O)OC)cc1Br` came in with a melting point of 136 to 138 °C.
Take `CCCCn1cc(C(=O)O)c2ccc(Cl)cc21`: the melting point was in the range of 149 to 151 °C.
The compound `O=C1C=CC(=O)N1c1ccc(S(=O)(=O)C(I)I)cc1` yielded a melting point of 217 °C.
Take `CC(=O)Nc1ccc(S(=O)(=O)Nc2nnc(CO)s2)cc1`: the melting point lay in the range of 101 to 102 °C.
The result for `Cc1cc2ccncc2c(=N)c2ccccc12` reads 165 to 168 °C; that for `CC(=NO)C(C)(C)COc1ccc(F)cc1`, 65 to 66 °C.
The result for `CC1C(=O)N(c2ccccc2)C(=S)N1Cc1ccc(Oc2ccccc2)cc1` (centres undefined) reads 122 °C; that for `COc1ccc(-c2nc(Sc3ccc(C)cc3)[nH]c2-c2ccc(OC)cc2)cc1`, 181 °C.
`CC(=O)C(=Cc1cc([N+](=O)[O-])c(O)c([N+](=O)[O-])c1)C(C)=O`: the melting point worked out at 158 °C.
The result for `CCON=C(C(C)=NOCc1ccccc1C(=NOC)C(=O)NC)c1ccc(OCc2cccc(C(F)(F)F)c2)cc1` reads 130 to 132 °C; that for `COc1ccc(C(=O)OC2CCCC2)nc1Cl`, 90 to 92 °C; that for `CSc1nc2cc(Cl)c(S(N)(=O)=O)cc2[nH]1`, 253 to 254 °C.
The result for `c1cnc2[nH]c(C3CCNC3)cc2c1` (centres undefined) reads 130 to 133 °C.
In turn, `CC(C)(C)NCC(O)COc1ccc(C(N)=O)cc1I` (centres undefined) had a melting point of 111 to 114 °C.
Then `Cc1ccc2c(c1)C1=NNC(=O)CC1CS2` (centres undefined), with 217 to 219 °C; and `Nc1nc(-c2cc(Cl)ccc2Cl)nc(N2CC(O)CC2C(=O)O)n1` (centres undefined), with 138 to 145 °C.
`O=[N+]([O-])c1cc(-c2cn3ncsc3n2)cc(O)c1O` yielded a melting point of 278 to 280 °C.
Then `COC(=O)c1ccc2c(c1)CN(c1cc3c(cc1F)c(=O)c(C(=O)O)cn3C1CC1)C2`, with 279 to 285 °C.
In the case of `CC(C)(C#N)Cc1ccccc1CC(C)(C)C#N`, the melting point lay in the range of 76 to 80 °C.
Regarding `NC(=S)NN=CC=Cc1ccccc1`, the melting point lay within 137 to 139 °C.
Then `O=S(=O)(O)c1ccc2c(c1)CNC(C(Cl)(Cl)Cl)O2` (centres undefined), with more than 260 °C; and `O=C1C(=CO)c2ccccc2N1c1ccccc1`, with 192 to 195 °C; and `COc1cc(OC)c(C(O)C(Cl)(Cl)Cl)cc1OC` (centres undefined), with 162 to 164 °C.
For the compound `Fc1cccc(F)c1C1=NC(C2(OC(F)(F)F)C=CC(c3ccccc3)=CC2)CS1` (centres undefined), the melting point was in the range of 85 to 86 °C.
Then `Fc1ccc(C2OC3(CCNCC3)N3CCCCC23)cc1` (centres undefined), with 112 to 114 °C; and `CC1(C)CC(=O)C2=C(C1)NC1=C(C(=O)CC(C)(C)C1)C2c1ccc([N+](=O)[O-])c(OCc2ccccc2)c1`, with 239 to 240 °C.
The result for `CCCc1c(OCCCCC(=O)N(C)C)ccc(C(C)=O)c1O` reads 95 to 97 °C.
On to `O=C(O)CCCCCCc1nc2c(F)c(F)cc(F)c2s1`, for which the melting point is 116 to 118 °C.
Then `COc1c(-c2cc3c(s2)CCC/C3=N\OCc2cccnc2)ccc2c(=O)c(C(=O)O)cn(C3CC3)c12`, with 181 to 183 °C; and `CCOC(=O)C1=C(C)NC(C)=C(C(=O)OCC)C1c1ccc(F)c(Br)c1`, with 118 to 119 °C; and `NS(=O)(=O)c1nc(-c2ccccc2F)ns1`, with 177 to 179 °C.
On to `CC(C)(CCCCCCCCC(C)(C)NC(=O)Cc1cc(C(C)(C)C)c(O)c(C(C)(C)C)c1)NC(=O)Cc1cc(C(C)(C)C)c(O)c(C(C)(C)C)c1`, for which the melting point came to 168 °C.
In turn, `CC(=O)OCC(=O)C1(O)C(C)CC2C3CCC4=CC(=O)CCC4(C)C3C(=O)CC21C` (centres undefined) showed a melting point of 214 to 219 °C.
Then `COc1cc([N+](=O)[O-])ccc1S(=O)(=O)n1c(=O)n(-c2ccccc2)c2cc(Cl)ccc21`, with more than 250 °C; and `Cc1ccc(Sc2c(Sc3ccc(C)cc3)c(Sc3ccc(C)cc3)c(C(O)=NCCO)c(C(=O)O)c2Sc2ccc(C)cc2)cc1`, with 161 to 162 °C.
Then `CCCCCC(O)(c1cncnc1)C(C)(C)C` (centres undefined), with 66 to 67 °C.
Consider `CCOC(=O)C1=C(C)NC(C)=C(C(=O)OCCN2CCN(C(c3ccc(C)cc3)c3ccc(C)cc3)CC2)C1c1cccc(C(F)(F)F)c1` (centres undefined), for which the melting point was 74 to 77 °C.
The compound `CN(O)C(=O)NCc1cccs1` registered a melting point of 106 to 107 °C.
Then `O=c1cccc(-c2nc(=O)c3ccccc3s2)[nH]1`, with 214 to 215 °C; and `O=C(Nc1c(Cl)cnn1-c1c(F)c(F)c(C(F)(F)F)c(F)c1F)C(Cl)Cl`, with 115 to 116 °C.
Then `O=[N+]([O-])c1c(Cl)cccc1-c1nn(CO)cc1Cl`, with 146 °C; and `COc1ccccc1N1CCN(CCNCCCN2CC=C(c3c[nH]c4cc(Cl)ccc34)CC2)CC1`, with 71 to 73 °C.
`CCCSc1ccc2c3c(cccc13)C(=O)N2` showed a melting point of 145 to 148 °C.
For `Cc1ccc(S(=O)(=O)c2ccccc2S(=O)(=O)N=CN(C)C)cc1`, the melting point worked out at 178 °C.
Then `O=[N+]([O-])c1ccc(/C=C/c2ccc(O)cc2)cc1`, with 210 °C; and `CS(=O)(=O)Cc1cc(F)cc(F)c1`, with 135 °C.
For `O=C(O)c1ccccc1Nc1ccc([N+](=O)[O-])cc1[N+](=O)[O-]`, the melting point lay in the range of 266 to 270 °C.
Take `CCOCc1nc2c(N)nc3cccnc3c2n1CC1(O)CCCC1`: the melting point was 165 to 166 °C.
Turning to `COC(=O)c1cc(-c2cccc(C(F)(F)F)c2)c[nH]c1=O`, the melting point fell in the range of 195 to 201 °C.
`OC(c1ccccc1)(c1ccccc1)C(F)(F)C(F)(F)F`: the melting point is 82 to 83 °C.
The result for `CS(=O)(=O)c1c(C(=O)O)ccc(F)c1F` reads 194 °C.
The result for `Cc1c(F)c(OC(F)F)cc2c1c(C#N)c(-c1ccc(S(=O)(=O)N[C@@H](C)C(F)(F)F)cn1)n2C1CCC1` reads 182 to 186 °C.
Then `CCCCCC(=O)c1ccc(C(=O)Nc2ccc3cc(CN4CCCC4)cnc3c2C)cc1`, with 175 °C.
In turn, `CCOC(=O)Nc1ccc(C2CCN(C(=O)OCC)CC2)cc1` gave a melting point of 105 to 107 °C.
The result for `CCOC(=O)[C@@H](Cc1ccccc1)C[C@H](Cc1ccccc1)C(=O)NCCC(=O)O` (relative stereo) reads 84 to 86 °C.
